Measurements reported in patent US8236339B2, “Therapeutic delivery of carbon monoxide” (priority 2001, dated 2012).
Marks after values point to notes of the source that are not given here.

Experiments:
[1] = test system: deoxymyoglobin (deoxy-Mb); assay: Myoglobin assay: conversion of deoxy-Mb to MbCO on direct addition of metal carbonyl; format: biochemical, horse; conditions: direct addition to myoglobin solution (66 μM), no light
Method: The release of CO from metal carbonyl complexes was assessed spectrophotometrically by measuring the conversion of deoxymyoglobin (deoxy-Mb) to carbonmonoxy myoglobin (MbCO). MbCO has a distinctive absorption spectrum between 500 and 600 nm, and changes at 540 nm were used to quantify the amount of CO liberated. Myoglobin solutions (66 μM final concentration) were prepared freshly by dissolving the protein in 0.04 M phosphate buffer (pH 6.8). Sodium dithionite (0.1%) was added to convert myoglobin to deoxy-Mb prior to each reading. All the spectra were measured using a Helios a spectrophotometer.
Various metal carbonyl complexes were tested for their ability to elicit MbCO formation when added directly to a deoxy-Mb solution. To different extents, [Ru(CO)3Cl2]2, [Ru(CO)2(DMSO)2Cl2], [Ru(CO)3Cl2(cytosine)] and […] all released CO when added directly to the Mb solution.
The metal carbonyl complex was solubilized in DMSO (9.7 mM stock solution), aliquots of 2 to 32 μl were added directly to 1 ml of deoxy-Mb solutions (66 μM) and absorption spectrum determined immediately after mixing the samples by inversion.

[2] = Systemic blood pressure and heart rate in anaesthetised Sprague-Dawley rats; format: in vivo, rat
Method: Adult male Sprague-Dawley rats (280-350 g, 8-10 weeks of age) were bred in-house at the Northwick Park Institute for Medical Research (Harrow, UK). Rats were housed in groups of 3 in cages under a 12 h cycle of day/night, with free access to drinking water and fed ad libitum. All surgical procedures were performed in compliance with U.K. Home Office regulations. Rats were anaesthetised in a polycarbonate chamber in a stream of Enflurane™ (Abbot, UK) in oxygen before being transferred onto a mask and continuously supplied with Enflurane™ throughout the experiment with an anaesthetic machine (Aimed, UK). During the surgical procedure the rats were kept at a constant body temperature of 37° C. using a heat pad positioned underneath the operating surface. Specially designed femoral artery and venous catheters were then surgically implanted as previously described (see ref. 40). The catheter in the artery was connected via a luer connector and a three-way tap to a pressure transducer (Gould model P23ID, Statham, USA) for continuous mean arterial pressure (MAP) and heart rate (HR) monitoring. A purpose-built tail-cuff pressure transducer (ADInstruments, UK) was also placed on the tail of the rat and pressure transducer and tail cuff were connected to a polygraph recorder (Grass, Model 7D, Astra-med, UK) pre-calibrated in millimeters of mercury (mmHg). An analogue output provided data for a computer-based data acquisition system (PowerLab™, ADInstruments, UK). The computer-based system was set to record mean arterial pressure (MAP), in mmHg, and heart rate (HR), in beats/min (bpm), for the duration of the experiment. […] Once a stable pressure had been reached, each catheter was flushed with saline containing heparin and no further changes were made to the anaesthetic supply. Ru(CO)3Cl(glycinato) (CO-RM-3) was prepared in stock solutions of 20, 60 and 120 μmoles·ml^−1 by solubilizing the compound in saline. […] CO-RM-3 (or the negative control) was then infused into the animal via the femoral vein catheter as a bolus so that the final concentration infused was 10, 30 or 60 μmoles·kg^−1 body weight. Throughout the experiment MAP and HR were continuously recorded and monitored. Although concentrations of 10, 30 and 60 μmoles·kg^−1 were infused into each animal, the resulting concentrations in the animal were cumulative. Therefore, the final concentration attained in the animal was 10, 40 and 100 μmoles·kg^−1, respectively.
The results are presented in Table 2, where the data shown represents samples taken at baseline (just before infusion of the compound) and directly after administration of 10, 30 and 60 μmoles·kg^−1 of the compound. All data are mean i SEM. n=3 independent experiments. *P<0.05 vs. baseline.

[3] = test system: aortic rings pre-contracted with phenylephrine; assay: Relaxation of isolated aortic rings pre-contracted with phenylephrine; set-up: species or system rat
Method: Transverse ring sections of thoracic aorta were isolated from male Lewis rats and suspended under a 2 g tension in an organ bath containing oxygenated Krebs-Henseleit buffer at 37° C. as previously described (23). The relaxation response to cumulative doses of metal carbonyl (dissolved in DMSO—see section 2) was assessed in aortic rings pre-contracted with phenylephrine (3 μM). Control rings were similarly treated by adding equal doses of DMSO (vehicle) to the organ bath.

[4] = test system: RAW 264.7 macrophages; conditions: 24 h, LPS 3 μg/ml with or without CO-RM-3 10, 50 and 100 μM
Method: Mouse RAW 264.7 macrophages were cultured in 24 wells using DMEM medium Confluent cells were incubated for 24 h with E. Coli lipopolysaccharide (LPS, 3 μg/ml) in the presence or absence of increasing concentrations of CO-RM-3 (10, 50 and 100 μM). Control cells were exposed to culture medium alone. […] Cell viability was also assessed in macrophages 24 h after treatment with the various agents as described in reference 47.

[5] = test system: RAW 264.7 macrophages; assay: Nitrite (NO) production in LPS-stimulated macrophages, Griess reagent method; format: cell-based, mouse; conditions: 10, 50 and 100 μM, 24 h with LPS 3 μg/ml
Excerpt: Control cells were exposed to culture medium alone.

[6] = Cardiac transplant rejection, BALB/c hearts into CBA mice; format: in vivo, mouse; conditions: 40 mg/kg i.p. doses
Method: Hearts from male BALB/c mouse (25-30 g) were used as donor organs for transplantation into male CBA mice (25-30 g). Mice were housed in groups of 3 in cages under a 12 h cycle of day/night, with free access to drinking water and fed ad libitum. All surgical procedures were performed in compliance with U.K. Home Office regulations. Animals were anaesthetized by an intraperitoneal injection of ketamine/xylazine during all procedures. The surgical technique involved the transplantation of the cardiac allograft into the recipient's neck as previously described (51). Graft survival was assessed daily by palpation, and rejection was diagnosed by cessation of ventricular contractions.
Ru(CO)3Cl(glycinato) was dissolved in 0.1 ml saline and administered intraperitoneally. All doses are 40 mg/kg of Ru(CO)3Cl(glycinato). The donors received two doses of Ru(CO)3Cl(glycinato) respectively at 1 day and 15 min prior to cardiac harvest. The recipients received doses of Ru(CO)3Cl(glycinato) at 1 day before surgery, 30 min prior to cardiac reperfusion and 1 h after transplantation (Day 0). Thereafter, graft recipients received a daily dose of Ru(CO)3Cl(glycinato) from day 1 to day 8(inclusive) post-transplant. In the control group, recipients received an equivalent dose of saline (vehicle) 1 day before and each day (days 1 to 8) after cardiac transplantation. Carprofen (0.01 mg) was given subcutaneously for pain relief immediately after transplantation to all animals. The results of this study are shown in FIG. 10. n=5 for each group. *p<0.002 vs. control. BALE/c hearts transplanted into CBA mice following treatment with saline (control group) underwent rejection'very rapidly. 100% of hearts stopped beating within 9 days of transplantation.

[7] = directly after i.v. bolus 10 μmol/kg
[8] = directly after i.v. bolus 30 μmol/kg (cumulative 40)
[9] = cumulative doses, phenylephrine 3 μM

NCC(=O)O.[C-]#[O+].[C-]#[O+].[C-]#[O+].[Cl][Ru] [CO-RM-3, Ru(CO)3Cl (NH2CH2CO2)]
MbCO formation / CO release when added directly to deoxy-Mb solution ([1]; listed as [Bu(CO)3(glycinate)Cl]): released CO | MbCO formation / CO release when added directly to deoxy-Mb solution ([1]; listed as [Ru(CO)3(glycinato)Cl]): high release of CO | transient decrease in MAP ([2]; 10 μmoles·kg^−1 bolus infusion): 6±2 mmHg | transient decrease in MAP ([2]; 30 μmoles·kg^−1 bolus infusion): 8±3 mmHg | transient decrease in MAP ([2]; 60 μmoles·kg^−1 bolus infusion): 14±0.3 mmHg | effects on HR or MAP (in words) ([2]; 10, 30 or 60 μmoles·kg^−1): concentration-dependent transient decrease in MAP | period of return of MAP to baseline ([2]; after bolus infusion): 10 min | HR, 10 μmol.kg^−1 [2, 7]: 276 ± 20 bpm | MAP, 10 μmol.kg^−1 [2, 7]: 73 ± 2 mmHg | HR, 30 μmol.kg^−1 [2, 8]: 261 ± 22 bpm | MAP, 30 μmol.kg^−1 [2, 8]: 72 ± 7 mmHg | MAP, 60 μmol.kg^−1 ([2]; directly after i.v. bolus 60 μmol/kg (cumulative 100)): 65 ± 4* mmHg | HR, 60 μmol.kg^−1 ([2]; directly after i.v. bolus 60 μmol/kg (cumulative 100), listed as Ru(CO)3Cl(glycinate)): 253 ± 23 bpm | HR, 60 μmol.kg^−1 ([2]; directly after i.v. bolus 60 μmol/kg (cumulative 100), listed as Ru(CO)3Cl(glycinato)): 253±23 bpm | MAP, Baseline ([2]; just before infusion of the compound): 79 ± 2 mmHg | HR, Baseline ([2]; just before infusion of the compound, listed as Ru(CO)3Cl(glycinate)): 270 ± 20 bpm | HR, Baseline ([2]; just before infusion of the compound, listed as Ru(CO)3Cl(glycinato)): 270±20 bpm | vasodilatory effect on pre-contracted aortic rings (in words) ([3]; consecutive additions): elicited significant vasodilatation | % Relaxation, 1st addition [3, 9]: 36% | % Relaxation, 2nd addition [3, 9]: 66.6% | % Relaxation, 3rd addition [3, 9]: 68.3% | cell viability of macrophages [4]: did not affect cell viability | nitrite generation in LPS-stimulated macrophages [5]: significantly attenuated nitrite generation in a concentration dependent manner | survival time of transplanted hearts (in words) ([6]; vs. saline control): significantly prolonged | hearts still beating ([6]; 18 days after transplantation): 100% | mice without any sign of rejection ([6]; 25 days after heart transplantation): 60% | transplanted hearts still viable ([6]; at 30 days): 40%
